pIC50: −log10 of the molar value. Starred links: 1 amine or outer side, 2 acyl side, 3 side chain; linkers in the order of their positions; H or OH if unused. Positions of bridges follow the written chain, without caps; N, C: chain ends. Non-standard residues stand in square brackets, D forms with d. Residues, ends and D or L forms follow the SMILES beside them. *: point of attachment. hPhe(3-Cl-4-CF3) = N[C@@H](CCc1ccc(C(F)(F)F)c(Cl)c1)C(=O)O; X38 = CN([C@@H](Cc1cccc(OC(F)(F)F)c1)C(=O)[*:2])[*:1]; hPhe(4-CF3) = N[C@@H](CCc1ccc(C(F)(F)F)cc1)C(=O)O; Phe(2-CF3) = N[C@@H](Cc1ccccc1C(F)(F)F)C(=O)O; NMePhe(4-Cl) = CN[C@@H](Cc1ccc(Cl)cc1)C(=O)O; NMePhe(4-Me) = CN[C@@H](Cc1ccc(C)cc1)C(=O)O; NMeAla(cPent) = CN[C@@H](CC1CCCC1)C(=O)O; Phe(3-I) = N[C@@H](Cc1cccc(I)c1)C(=O)O; NMeCha = CN[C@@H](CC1CCCCC1)C(=O)O; Nva(3-Et) = CCC(CC)[C@H](N)C(=O)O; NMeChg = CN[C@H](C(=O)O)C1CCCCC1; NMeF = CN[C@@H](Cc1ccccc1)C(=O)O; NMeI = CC[C@H](C)[C@H](NC)C(=O)O; NMeD = CN[C@@H](CC(=O)O)C(=O)O; dNMeD = CN[C@H](CC(=O)O)C(=O)O; NMeL = CN[C@@H](CC(C)C)C(=O)O; NMeV = CN[C@H](C(=O)O)C(C)C; d(β3hA) = C[C@@H](N)CC(=O)O; Pip = O=C(O)[C@@H]1CCCCN1; NMeA = CN[C@@H](C)C(=O)O; NMeAib = CNC(C)(C)C(=O)O; Piperidide = C1CCN(*)CC1; Pyrrolidide = C1CCN(*)C1; Ac5c = NC1(C(=O)O)CCCC1; Aze = O=C(O)[C@@H]1CCN1; Sar = CNCC(=O)O

In this test the target is T1, Kras and SOS1 (biotin-tagged human Kras loaded with GDP, His-tagged human SOS1) (Homo sapiens, UniProt P01116, G12D).
T1 construct: made in house; host or cells: E. coli (stated for Kras only)
T1 sequence (P01116 1-188 isoform P01116-2 G12D): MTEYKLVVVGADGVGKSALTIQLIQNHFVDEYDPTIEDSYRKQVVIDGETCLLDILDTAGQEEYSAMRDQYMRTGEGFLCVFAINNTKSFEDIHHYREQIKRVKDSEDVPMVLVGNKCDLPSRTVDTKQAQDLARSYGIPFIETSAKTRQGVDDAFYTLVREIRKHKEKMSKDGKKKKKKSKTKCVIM
Nature of the test: Protein-protein interaction inhibition between Kras and SOS1 (KrasGl2D-SOS PPI) using AlphaScreen. To be noted: AlphaScreen; biotin-tagged human Kras loaded with GDP, His-tagged human SOS1; read-out: KRAS G12D-SOS PPI IC50. Type of test: binding. Put shortly: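 Donor beads (nickel) hold His-SOS1; acceptor beads (streptavidin) hold biotin-Kras bound to GDP. Signal measured at 520-620 nm following 680 nm excitation.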
Turning to `CC[C@H](C)[C@@H]1NC(=O)[C@H](CC(C)C)N(C)C(=O)C[C@@H](C(=O)N2CCCCC2)N(C)C(=O)[C@H](C(C)C)N(C)C(=O)C2(CCCC2)NC(=O)[C@@H]2CCCN2C(=O)[C@H](CCc2ccc(C(F)(F)F)c(Cl)c2)NC(=O)CN(C)C(=O)[C@H](CC2CCCCC2)N(C)C(=O)[C@@H]2CCN2C(=O)[C@H](CC2CCCC2)N(C)C1=O` [Compound 1552] ([NMeL]I[NMeAla(cPent)][Aze][NMeCha][Sar][hPhe(3-Cl-4-CF3)]P[Ac5c][NMeV][NMeD]-Piperidide; lactam N-11), the negative-log IC50 (pIC50) is 7.21. In the case of `CCC(CC)[C@@H]1NC(=O)[C@H](CC(C)C)N(C)C(=O)C[C@@H](C(=O)N(C)C)N(C)C(=O)[C@H]([C@@H](C)CC)N(C)C(=O)CNC(=O)[C@@H]2CCCN2C(=O)[C@H](CCc2ccc(C(F)(F)F)c(Cl)c2)NC(=O)CN(C)C(=O)[C@H](Cc2ccc(C)cc2)N(C)C(=O)[C@@H]2CCN2C(=O)[C@H](C)N(C)C1=O` [Compound 193] ([NMeL][Nva(3-Et)][NMeA][Aze][NMePhe(4-Me)][Sar][hPhe(3-Cl-4-CF3)]PG[NMeI][NMeD]-NMe2; lactam N-11), the pIC50 is 6.38. Turning to `CC[C@H](C)[C@@H]1NC(=O)[C@H](CC(C)C)N(C)C(=O)C[C@@H](C(=O)N2CCCCC2)N(C)C(=O)[C@H](CC(C)C)NC(=O)C(C)(C)N(C)C(=O)[C@H](Cc2ccccc2C(F)(F)F)NC(=O)[C@H](Cc2cccc(I)c2)NC(=O)CN(C)C(=O)[C@H](Cc2ccc(C)cc2)N(C)C(=O)[C@@H]2CCN2C(=O)CN(C)C1=O` [Compound 791] ([NMeL]I[Sar][Aze][NMePhe(4-Me)][Sar][Phe(3-I)][Phe(2-CF3)][NMeAib]L[NMeD]-Piperidide; lactam N-11), the pIC50 is 6.49. For the molecule `CC[C@H](C)[C@@H]1NC(=O)[C@@H]2CCCCN2C(=O)C[C@@H](C)NC(=O)[C@H](C(C)C)N(C)C(=O)[C@H](Cc2ccccc2)N(C)C(=O)[C@H](CC(C)C)N(C)C(=O)[C@H](CCc2ccc(C(F)(F)F)cc2)NC(=O)CN(C)C(=O)[C@H](Cc2ccc(Cl)cc2)N(C)C(=O)CN(C)C(=O)CN(C)C1=O` [Compound 1110] (cyclo(I[Sar][Sar][NMePhe(4-Cl)][Sar][hPhe(4-CF3)][NMeL][NMeF][NMeV][d(β3hA)][Pip])), the negative-log IC50 (pIC50) is 6.89. For the molecule `CC[C@H](C)[C@@H]1NC(=O)[C@H](CC(C)C)N(C)C(=O)C[C@H](C(=O)N2CCCC2)N(C)C(=O)[C@H]([C@@H](C)CC)N(C)C(=O)C2(CCCC2)NC(=O)[C@@H]2CCCN2C(=O)[C@H](CCc2ccc(C(F)(F)F)c(Cl)c2)NC(=O)CN(C)C(=O)[C@H](CC2CCCCC2)N(C)C(=O)CN(C)C(=O)CN(C)C1=O` [Compound 1814] ([NMeL]I[Sar][Sar][NMeCha][Sar][hPhe(3-Cl-4-CF3)]P[Ac5c][NMeI][dNMeD]-Pyrrolidide; lactam N-11), the pIC50 was 6.77. Next, `CC[C@H](C)[C@@H]1NC(=O)[C@H](CC(C)C)N(C)C(=O)C[C@@H](C(=O)N2CCCCC2)N(C)C(=O)[C@H](C2CCCCC2)N(C)C(=O)C2(CCCC2)NC(=O)[C@@H](C)NC(=O)[C@H](CCc2ccc(C(F)(F)F)c(Cl)c2)NC(=O)CN(C)C(=O)[C@H](CC2CCCCC2)N(C)C(=O)CN(C)C(=O)CN(C)C1=O` [Compound 277] ([NMeL]I[Sar][Sar][NMeCha][Sar][hPhe(3-Cl-4-CF3)][dA][Ac5c][NMeChg][NMeD]-Piperidide; lactam N-11): 8.29.

Take `CC[C@H](C)[C@@H]1NC(=O)[C@H](CC(C)C)N(C)C(=O)C[C@@H](C(=O)N(C)C)N(C)C(=O)[C@H]([C@@H](C)CC)N(C)C(=O)C2(CCCC2)NC(=O)[C@H](Cc2cccc(OC(F)(F)F)c2)N(C)C(=O)[C@H](CCc2ccc(C(F)(F)F)c(Cl)c2)NC(=O)CN(C)C(=O)[C@H](Cc2ccc(C)cc2)N(C)C(=O)[C@@H]2CCN2C(=O)[C@H](C)N(C)C1=O` [Compound 1970] ([NMeL]I[NMeA][Aze][NMePhe(4-Me)][Sar][hPhe(3-Cl-4-CF3)][X38][Ac5c][NMeI][NMeD]-NMe2; lactam N-11): the pIC50 was 7.28.

These data come from patent publication US12371454B2, “Cyclic peptide compound having Kras inhibitory action” (priority 2019, dated 2025).
